The values below are quoted from earlier work in patent publication US8524751B2, “4-oxadiazol-2-YL-indazoles as inhibitors of P13 kinases” (priority 2009, dated 2013).

pIC50: −log10 of the molar value. Where two headings read alike, the source gives them in different places.

The test system of data set [1] is Class I PI3-kinases. The following applies: each of the Class I PI3-kinases.
In data set [2] the target is CK2 protein kinase.

In general, pIC50 refers to −log10 of the IC50, conventionally taken in molar units. For `O=c1cc(N2CCOCC2)oc2c(-c3ccccc3)cccc12` [LY294002], the pIC50 in data set [1] (Fruman et al. 1998, read-out: IC50 values against each of these PI3-kinases) was 4.70 to 4.82; in data set [2] it was 5.00 to 5.30.

Take `COC[C@H]1OC(=O)c2coc3c2[C@@]1(C)C1=C(C3=O)[C@@H]2CCC(=O)[C@@]2(C)C[C@H]1OC(C)=O` [wortmannin]: the pIC50 in data set [1] (read-out: IC50 values against each of the various Class I PI3-kinases) was 8.00 to 9.00.
